Reference: PMC8005870, “Membrane Lipid Requirements of the Lysine Transporter Lyp1 from Saccharomyces cerevisiae” (Journal of molecular biology, 2020)

Biological target: T1, Lyp1 (Lyp1-GFP) (Saccharomyces cerevisiae, UniProt P32487)
T1 construct: full-length Lyp1 with C-terminal TEV-GFP-His10 kept, expressed in Pichia pastoris SMD1163, DDM-solubilised, purified by IMAC and FSEC, reconstituted in proteoliposomes
T1 sequence (P32487 1-611): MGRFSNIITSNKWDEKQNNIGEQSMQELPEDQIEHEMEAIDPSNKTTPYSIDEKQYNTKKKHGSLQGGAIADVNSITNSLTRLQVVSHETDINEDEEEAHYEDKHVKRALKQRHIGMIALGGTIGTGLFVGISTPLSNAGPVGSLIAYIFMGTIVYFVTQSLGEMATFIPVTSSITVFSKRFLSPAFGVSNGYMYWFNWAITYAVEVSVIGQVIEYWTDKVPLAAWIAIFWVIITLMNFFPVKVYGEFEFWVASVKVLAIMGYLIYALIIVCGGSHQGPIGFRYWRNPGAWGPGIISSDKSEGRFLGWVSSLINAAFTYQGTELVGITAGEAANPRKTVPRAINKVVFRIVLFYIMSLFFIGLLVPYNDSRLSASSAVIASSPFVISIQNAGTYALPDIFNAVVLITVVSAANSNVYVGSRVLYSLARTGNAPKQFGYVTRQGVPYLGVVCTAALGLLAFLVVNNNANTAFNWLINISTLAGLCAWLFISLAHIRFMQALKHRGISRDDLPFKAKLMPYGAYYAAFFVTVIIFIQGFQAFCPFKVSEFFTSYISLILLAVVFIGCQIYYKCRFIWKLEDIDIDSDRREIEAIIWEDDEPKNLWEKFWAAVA
Experiment: lysine transport turnover versus mol% lipid in proteoliposomes
Format: biochemical
Settings: proton motive force about -160 mV (valinomycin K+ diffusion potential plus acetate gradient), pH 6.0; defined lipid vesicles; POPS titrated in POPS/POPE/ergosterol vesicles; sigmoidal, cooperative lip

`CCCCCCCC/C=C\CCCCCCCC(=O)O[C@H](COC(=O)CCCCCCCCCCCCCCC)COP(=O)(O)OC[C@H](N)C(=O)O` [POPS, 1-palmitoyl-2-oleoyl-sn-glycero-3-phosphoserine] was tested, and the “lysine transport turnover versus mol% lipid in proteoliposomes” value was “We found a sigmoidal relationship between Lyp1 activity and POPS concentration”.
